Assay [1] deals with Citrobacter freundii. The assay can be described thus: In vitro minimal inhibitory concentration (MIC) of compound in combination with Ceftazidime (CAZ) showed synergic activity against Citrobacter freundii 44032. Type of assay: functional.
For assay [2], the system named is Citrobacter freundii. The assay can be described thus: In vitro minimal inhibitory concentration (MIC) of compound in combination with Ceftazidime (CAZ) showed synergic activity against Citrobacter freundii CT 76. Type of assay: functional.
For assay [3], the system named is Klebsiella aerogenes. The assay can be described thus: In vitro minimal inhibitory concentration (MIC) of compound in combination with Ceftazidime (CAZ) showed synergic activity against Enterobacter aerogenes S-97. Format: functional.
Assay [4] relates to Klebsiella aerogenes. The experiment in a line: In vitro minimal inhibitory concentration (MIC) of compound in combination with Ceftazidime (CAZ) showed synergic activity against Enterobacter aerogenes 41003. Type of assay: functional.
Assay [5] has as its system Klebsiella aerogenes. The experiment in a line: In vitro minimal inhibitory concentration (MIC) of compound in combination with Ceftazidime (CAZ) showed synergic activity against Enterobacter aerogenes 41004. Format: functional.
Assay [6] has as its system Klebsiella aerogenes. The assay can be described thus: In vitro minimal inhibitory concentration (MIC) of compound in combination with Ceftazidime (CAZ) showed synergic activity against Enterobacter aerogenes 41006. Type of assay: functional.
The test system of assay [7] is Enterobacter cloacae. The assay can be described thus: In vitro minimal inhibitory concentration (MIC) of compound in combination with Ceftazidime (CAZ) showed synergic activity against Enterobacter cloacae S-65. Type of assay: functional.
The subject of assay [8] is Enterobacter cloacae. The assay can be described thus: In vitro minimal inhibitory concentration (MIC) of compound in combination with Ceftazidime (CAZ) showed synergic activity against Enterobacter cloacae S-11. Format: functional.
Assay [9] has as its system Enterobacter cloacae. The assay can be described thus: In vitro minimal inhibitory concentration (MIC) of compound in combination with Ceftazidime (CAZ) showed synergic activity against Enterobacter cloacae 40011. Type of assay: functional.
The subject of assay [10] is Enterobacter cloacae. The experiment in a line: In vitro minimal inhibitory concentration (MIC) of compound in combination with Ceftazidime (CAZ) showed synergic activity against Enterobacter cloacae E40002. Type of assay: functional.
Assay [11] has as its system Enterobacter cloacae. The experiment in a line: In vitro minimal inhibitory concentration (MIC) of compound in combination with Ceftazidime (CAZ) showed synergic activity against Enterobacter cloacae P99. Type of assay: functional.
Assay [12] deals with Escherichia coli. The assay can be described thus: In vitro minimal inhibitory concentration (MIC) of compound in combination with Ceftazidime (CAZ) showed synergic activity against Escherichia coli TEM 3. Type of assay: functional.
In assay [13] the test system is Escherichia coli. The experiment in a line: In vitro minimal inhibitory concentration (MIC) of compound in combination with Ceftazidime (CAZ) showed synergic activity against Escherichia coli TEM 7. Format: functional.
Assay [14] deals with Klebsiella pneumoniae. The experiment in a line: In vitro minimal inhibitory concentration (MIC) of compound in combination with Ceftazidime (CAZ) showed synergic activity against Klebsiella pneumoniae CTX 1. Format: functional.
The test system of assay [15] is Morganella morganii. The assay can be described thus: In vitro minimal inhibitory concentration (MIC) of compound in combination with Ceftazidime (CAZ) showed synergic activity against Morganella morganii 36014. Format: functional.
In assay [16] the test system is Morganella morganii. The assay can be described thus: In vitro minimal inhibitory concentration (MIC) of compound in combination with Ceftazidime (CAZ) showed synergic activity against Morganella morganii 36030. Type of assay: functional.
In assay [17] the test system is Pseudomonas aeruginosa. The experiment in a line: In vitro minimal inhibitory concentration (MIC) of compound in combination with Ceftazidime (CAZ) showed synergic activity against Pseudomonas aeruginosa 46220 (DR-2). Format: functional.
For assay [18], the system named is Proteus vulgaris. The experiment in a line: In vitro minimal inhibitory concentration (MIC) of compound in combination with Ceftazidime (CAZ) showed synergic activity against Proteus vulgaris CT 106. Format: functional.
Assay [19] relates to Pseudomonas aeruginosa. The assay can be described thus: microbe, parasite or virus in culture.
The subject of assay [20] is Pseudomonas aeruginosa. The assay can be described thus: microbe, parasite or virus in culture. This is another data set of the same source.
In assay [21] the test system is Citrobacter freundii. The experiment in a line: In vitro minimal inhibitory concentration of compound against Citrobacter freundii 2046E. Type of assay: functional.
Assay [22] concerns Citrobacter freundii. The experiment in a line: In vitro minimal inhibitory concentration of compound against Citrobacter freundii 44032. Format: functional.
Assay [23] has as its system Escherichia coli. The assay can be described thus: In vitro minimal inhibitory concentration of compound against Escherichia coli OXA 1. Format: functional.
The test system of assay [24] is Escherichia coli. The experiment in a line: In vitro minimal inhibitory concentration of compound against Escherichia coli OXA 3. Format: functional.
Assay [25] concerns Escherichia coli. The assay can be described thus: In vitro minimal inhibitory concentration of compound against Escherichia coli SHV 1. Format: functional.
For assay [26], the system named is Escherichia coli. The assay can be described thus: In vitro minimal inhibitory concentration of compound against Escherichia coli SHV 5. Format: functional.
The subject of assay [27] is Escherichia coli. The assay can be described thus: In vitro minimal inhibitory concentration of compound against Escherichia coli TEM 3. Type of assay: functional.
The test system of assay [28] is Escherichia coli. The assay can be described thus: In vitro minimal inhibitory concentration of compound against Escherichia coli TEM 7. Format: functional.
Assay [29] relates to Klebsiella aerogenes. The assay can be described thus: In vitro minimal inhibitory concentration of compound against Enterobacter aerogenes 41003. Format: functional.
The test system of assay [30] is Klebsiella aerogenes. The experiment in a line: In vitro minimal inhibitory concentration of compound against Enterobacter aerogenes 41004. Type of assay: functional.
In assay [31] the test system is Klebsiella aerogenes. The experiment in a line: In vitro minimal inhibitory concentration of compound against Enterobacter aerogenes 41006. Type of assay: functional.
The test system of assay [32] is Enterobacter cloacae. The experiment in a line: In vitro minimal inhibitory concentration of compound against Enterobacter cloacae 40011. Format: functional.
For assay [33], the system named is Enterobacter cloacae. The experiment in a line: In vitro minimal inhibitory concentration of compound against Enterobacter cloacae 40015. Format: functional.
The test system of assay [34] is Enterobacter cloacae. The assay can be described thus: In vitro minimal inhibitory concentration of compound against Enterobacter cloacae P99. Format: functional.
The test system of assay [35] is Klebsiella pneumoniae. The assay can be described thus: In vitro minimal inhibitory concentration of compound against Klebsiella pneumoniae CTX 1. Format: functional.
Assay [36] concerns Morganella morganii. The assay can be described thus: In vitro minimal inhibitory concentration of compound against Morganella morganii 36014. Type of assay: functional.
Assay [37] has as its system Pseudomonas aeruginosa. The assay can be described thus: In vitro minimal inhibitory concentration of compound against Pseudomonas aeruginosa 46220 (DR-2). Type of assay: functional.
The test system of assay [38] is Proteus vulgaris. The assay can be described thus: In vitro minimal inhibitory concentration of compound against Proteus vulgaris CT 106. Format: functional.
The test system of another assay is Serratia marcescens. The experiment in a line: In vitro minimal inhibitory concentration of compound against Serratia marcescens 200 L. Type of assay: functional.
In assay [39] the test system is Staphylococcus aureus. The experiment in a line: In vitro minimal inhibitory concentration of compound against Staphylococcus aureus 80K. Type of assay: functional.
Assay [40] has as its system Staphylococcus aureus. The assay can be described thus: In vitro minimal inhibitory concentration of compound against Staphylococcus aureus 54K. Type of assay: functional.
Assay [41] has as its system Pseudomonas aeruginosa. The assay can be described thus: microbe, parasite or virus in culture. This is another data set of the same source.
Description: In vitro minimal inhibitory concentration (MIC) of compound against Pseudomonas aeruginosa CT-122 in combination with Ceftazidime (CAZ)
Assay [42] concerns Pseudomonas aeruginosa. The experiment in a line: microbe, parasite or virus in culture. This is another data set of the same source.
[43] abbreviates: Morganella morganii, read-out: MIC.

Converted amounts (≈) assume the structure as drawn.

Among the data in ChEMBL document CHEMBL1129860, “Studies on penam sulfones III. Synthesis and -lactamase inhibitory activity of sodium (6R)-6-(-hydroxybenzyl)-2-methoxyiminomethyl-2-methylpenam-3-carboxylate 1,1-dioxide and sodium 2-acyl-2-methylpenam-3-carboxylate 1,1-dioxide” (1997) are MIC values, retold here.

Consider `CC(C)(O/N=C(\C(=O)NC1C(=O)N2C(C(=O)[O-])=C(C[n+]3ccccc3)CSC12)c1csc(N)n1)C(=O)O.C[C@]1(Cn2ccnn2)[C@H](C(=O)[O-])N2C(=O)CC2S1(=O)=O.[Na+]` (centres undefined), for which the MIC was determined as 200 µg/mL with Citrobacter freundii [1]; 50 µg/mL in the assay on Citrobacter freundii [2]; 1 µg/mL in the assay on Klebsiella aerogenes [3]; 12.5 µg/mL in the assay on Klebsiella aerogenes [4]; 12.5 µg/mL with Klebsiella aerogenes [5]; 100 µg/mL with Klebsiella aerogenes [6]. Moreover, the MIC in the assay on Enterobacter cloacae [7] is under 0.25 µg/mL; in the assay on Enterobacter cloacae [8], under 0.25 µg/mL; in the assay on Enterobacter cloacae [9], 3.13 µg/mL; in the assay on Enterobacter cloacae [10], 200 µg/mL; in the assay on Enterobacter cloacae [11], 12.5 µg/mL; in the assay on Escherichia coli [12] it was at most 0.2 µg/mL. Also, the MIC with Escherichia coli [13] was at most 0.2 µg/mL; with Klebsiella pneumoniae [14], 0.78 µg/mL; in the assay on Morganella morganii [15], “<=0.2 ug ml-1”; in the assay on Morganella morganii [15] (setting [43]), under 0.25 µg/mL; in the assay on Morganella morganii [16], under 0.25 µg/mL; in the assay with Pseudomonas aeruginosa [17], 25 µg/mL. Moreover, the MIC in the assay with Proteus vulgaris [18] worked out at 0.39 µg/mL; in the assay with Pseudomonas aeruginosa [19], 32 µg/mL; in the assay on Pseudomonas aeruginosa [20] it was 16 µg/mL.
In the case of `CCN1CCN(C(=O)N[C@@H](C(=O)N[C@@H]2C(=O)N3[C@@H]2SC(C)(C)[C@@H]3C(=O)O)c2ccccc2)C(=O)C1=O` [PIPERACILLIN], the MIC against Citrobacter freundii [21] is over 400 µg/mL; in the assay on Citrobacter freundii [22], 200 µg/mL (≈ 386 µM); in the assay on Escherichia coli [23], 25 µg/mL (≈ 48.3 µM); against Escherichia coli [24] it was 3.13 µg/mL (≈ 6.05 µM); against Escherichia coli [25], over 400 µg/mL; against Escherichia coli [26], 200 µg/mL (≈ 386 µM). In addition, the MIC against Escherichia coli [27] is 200 µg/mL (≈ 386 µM); with Escherichia coli [28] it was over 400 µg/mL; against Klebsiella aerogenes [29], 12.5 µg/mL (≈ 24.2 µM); in the assay with Klebsiella aerogenes [30], 12.5 µg/mL (≈ 24.2 µM); in the assay on Klebsiella aerogenes [31] it was 100 µg/mL (≈ 193 µM); against Enterobacter cloacae [32], 50 µg/mL (≈ 96.6 µM). Further, the MIC against Enterobacter cloacae [33] is 100 µg/mL (≈ 193 µM); against Enterobacter cloacae [34] it was 100 µg/mL (≈ 193 µM); with Klebsiella pneumoniae [35], over 400 µg/mL; against Morganella morganii [36], 50 µg/mL (≈ 96.6 µM); against Pseudomonas aeruginosa [37], 100 µg/mL (≈ 193 µM); with Proteus vulgaris [38], 200 µg/mL (≈ 386 µM). For the same compound, the MIC worked out at 200 µg/mL (≈ 386 µM) against Serratia marcescens, 50 µg/mL (≈ 96.6 µM) in the assay on Staphylococcus aureus [39] and 200 µg/mL (≈ 386 µM) with Staphylococcus aureus [40].
With `CC(C)(O/N=C(\C(=O)N[C@@H]1C(=O)N2C(C(=O)[O-])=C(C[n+]3ccccc3)CS[C@H]12)c1csc(N)n1)C(=O)O.CC1(C)[C@H](C(=O)[O-])N2C(=O)[C@@H]([C@@H](O)c3ccccc3)[C@H]2S1(=O)=O.[Na+]`, the MIC in the assay with Klebsiella aerogenes [3] is 2 µg/mL; with Enterobacter cloacae [7], under 0.25 µg/mL; in the assay on Enterobacter cloacae [8], under 0.25 µg/mL; in the assay on Morganella morganii [15] (setting [43]), under 0.25 µg/mL; with Morganella morganii [16], under 0.25 µg/mL; in the assay with Pseudomonas aeruginosa [41] it was 32 µg/mL. This compound gave an MIC against Pseudomonas aeruginosa [42] of 16 µg/mL.
